# Laboratory results reported in US9809808B2, “Antimicrobial agents” (KATHOLIEKE UNIVERSITEIT LEUVEN K.U. LEUVEN R&D, priority 2008, dated 2017).
# Where two headings read alike, the source gives them in different places.
# B1: POLY-gp144: SEQ ID NO: 35: phiKZgp144 (SEQ ID NO: 1) with N-terminal peptide stretch KRKKRKKRK (SEQ ID NO: 11) (protein)
# chain: MGSKRKKRKKRKKVLRKGDRGDEVCQLQTLLNLCGYDVGKPDGIFGNNTFNQVVKFQKDNCLDSDGIVGKNTWAELFSKYSPPIPYKTIPMPTANKSRAAATPVMNAVENATGVRSQLLLTFASIESAFDYEIKAKTSSATGWFQFLTGTWKTMIENYGMKYGVLTDPTGALRKDPRISALMGAELIKENMNILRPVLKREPTDTDLYLAHFFGPGAARRFLTTGQNELAATHFPKEAQANPSIFYNKDGSPKTIQEVYNLMDGKVAAHRK
# modifications: POLY-gp144
# Test system: Burkholderia solanacearum
# Assay type: cell-based
# Conditions: 100 μg/ml undialyzed protein, 1 hour, room temperature
Molecule,Reduction [%] (relative inactivation),Reduction [%] (relative inactivation) (listed as POLYKZ144)
phiKZgp144: SEQ ID NO: 1: unmodified modular endolysin originating from Pseudomonas aeruginosa phage φKZ [reference compound],0%,
B1,,99-99.9%
